Results from DBAASP.
In brackets after ≈: the same amount, converted by molar mass.

Legend:
Assay in all cases: ≥ marks a high value that may be exact or a test limit, other limits are often not marked, values filed in µg/mL are converted to µM
Escherichia coli = test system: Escherichia coli
Bacillus cereus = test system: Bacillus cereus
[1] = test system: Staphylococcus aureus ATCC 25923
[2] = test system: Escherichia coli ATCC 25922
[3] = test system: Candida albicans ATCC 90028
Staphylococcus aureus = test system: Staphylococcus aureus
[4] = test system: Pseudomonas aeruginosa ATCC 27853
[5] = test system: Acinetobacter baumannii ATCC 19606
[6] = test system: Staphylococcus aureus ATCC 29213
Pseudomonas aeruginosa = test system: Pseudomonas aeruginosa
[7] = test system: Candida albicans ATCC 10231
Acinetobacter baumannii = test system: Acinetobacter baumannii
[8] = test system: Enterococcus faecalis ATCC 29212
[9] = test system: Candida albicans ATCC 2002
[10] = test system: Staphylococcus aureus ATCC 33591

An MIC (Escherichia coli) of over 120 µM and an MIC (Bacillus cereus) of at least 120 µM were found for `CSCC[C@H](NC(=O)[C@H](CO)NC(=O)[C@H](Cc1ccccc1)NC(=O)[C@@H](NC(=O)[C@H](CO)NC(=O)[C@@H]1CCCN1C(=O)[C@@H](NC(=O)[C@@H](NC(=O)[C@H](CCCCN)NC(=O)[C@H](CO)NC(=O)[C@H](C)NC(=O)[C@H](CC(C)C)NC(=O)[C@H](CO)NC(=O)[C@H](Cc1ccccc1)NC(=O)[C@H](CC(C)C)NC(=O)[C@H](C)N)C(C)C)C(C)C)C(C)C)C(=O)N[C@H](C(=O)N[C@H](C(=O)N[C@@H](CCCCN)C(=O)N[C@@H](CCCCN)C(=O)O)[C@@H](C)O)C(C)C` [ALFSLASKVVPSVFSMVTKK] in this work.
An MIC [1] of 3 µM (≈ 7.71 µg/mL), an MIC [2] of 25 µM (≈ 64.3 µg/mL) and an MIC [3] of 3 µM (≈ 7.71 µg/mL) were found for `CC[C@H](C)[C@H](NC(=O)[C@H](C)NC(=O)CNC(=O)[C@H](CC(C)C)NC(=O)[C@@H](N)Cc1ccccc1)C(=O)N[C@@H](C)C(=O)NCC(=O)N[C@H](C(=O)N[C@@H](C)C(=O)N[C@@H](C)C(=O)N[C@@H](CCCCN)C(=O)N[C@@H](Cc1ccccc1)C(=O)N[C@@H](CC(C)C)C(=O)N1CCC[C@H]1C(=O)N[C@@H](CCCCN)C(=O)N[C@H](C(=O)N[C@@H](Cc1ccccc1)C(=O)N[C@H]1CSSC[C@@H](C(=O)O)NC(=O)[C@H](CCCCN)NC(=O)[C@H](CCCCN)NC(=O)[C@H]([C@@H](C)O)NC(=O)[C@H]([C@@H](C)CC)NC(=O)[C@H](Cc2ccccc2)NC1=O)C(C)C)C(C)C` [FLGAIAGVAAKFLPKVFCFITKKC] in this work.
An MIC (Escherichia coli) of 59.4 µM (≈ 128 µg/mL), an MIC (Bacillus cereus) of at least 59.4 µM and an MIC (Staphylococcus aureus) of over 59.4 µM were found for `CC(C)C[C@H](NC(=O)[C@@H](N)Cc1ccccc1)C(=O)NCC(=O)N[C@@H](CCCCN)C(=O)N[C@H](C(=O)N[C@@H](Cc1ccccc1)C(=O)N[C@@H](CCCCN)C(=O)NCC(=O)N[C@H](C(=O)N[C@@H](CO)C(=O)N[C@@H](CCCCN)C(=O)N[C@H](C(=O)N[C@@H](Cc1ccccc1)C(=O)N1CCC[C@H]1C(=O)N[C@@H](C)C(=O)N[C@H](C(=O)N[C@@H](Cc1ccccc1)C(=O)NCC(=O)N[C@@H](CCCCN)C(=O)N[C@H](C(=O)O)C(C)C)C(C)C)C(C)C)C(C)C)C(C)C` [FLGKVFKGVSKVFPAVFGKV] in this work.
An MIC (Escherichia coli) of 59.5 µM (≈ 128 µg/mL), an MIC (Bacillus cereus) of at least 59.5 µM and an MIC (Staphylococcus aureus) of over 59.5 µM were found for `CC(C)C[C@H](NC(=O)[C@@H](N)Cc1ccccc1)C(=O)NCC(=O)N[C@@H](CCCCN)C(=O)N[C@H](C(=O)N[C@@H](Cc1ccccc1)C(=O)N[C@@H](CCCCN)C(=O)N[C@@H](CCCCN)C(=O)N[C@@H](C)C(=O)N[C@@H](CO)C(=O)N[C@@H](CCCCN)C(=O)N[C@H](C(=O)N[C@@H](Cc1ccccc1)C(=O)N1CCC[C@H]1C(=O)N[C@@H](C)C(=O)N[C@H](C(=O)N[C@H](C(=O)NCC(=O)N[C@@H](CCCCN)C(=O)N[C@H](C(=O)O)C(C)C)C(C)C)C(C)C)C(C)C)C(C)C` [FLGKVFKKASKVFPAVVGKV] in this work.
An MIC (Escherichia coli) of over 122 µM, an MIC (Bacillus cereus) of 15.2 µM (≈ 32 µg/mL) and an MIC (Staphylococcus aureus) of 7.6 µM (≈ 16 µg/mL) were found for `CC(C)C[C@H](NC(=O)[C@H](CCCCN)NC(=O)[C@@H](NC(=O)[C@@H](NC(=O)[C@@H](NC(=O)CNC(=O)[C@H](CC(C)C)NC(=O)[C@@H](N)Cc1ccccc1)C(C)C)C(C)C)C(C)C)C(=O)N[C@@H](C)C(=O)N[C@@H](CO)C(=O)N[C@@H](CCCCN)C(=O)N[C@H](C(=O)N[C@@H](Cc1ccccc1)C(=O)N1CCC[C@H]1C(=O)N[C@@H](C)C(=O)N[C@H](C(=O)N[C@@H](Cc1ccccc1)C(=O)NCC(=O)N[C@@H](CCCCN)C(=O)N[C@H](C(=O)O)C(C)C)C(C)C)C(C)C` [FLGVVVKLASKVFPAVFGKV] in this work.
An MIC [1] of 112 µM (≈ 128 µg/mL), an MIC [4] of 7.02 µM (≈ 7.99 µg/mL) and an MIC [5] of 112 µM (≈ 128 µg/mL) were found for `CC(C)C[C@H](NC(=O)[C@H](CC(C)C)NC(=O)[C@H](CCCCN)NC(=O)[C@H](CCCCN)NC(=O)[C@H](CC(C)C)NC(=O)[C@H](Cc1cnc[nH]1)NC(=O)[C@H](CCCCN)NC(=O)[C@H](CC(C)C)NC(=O)[C@@H](N)Cc1ccccc1)C(N)=O` [FLKHLKKLL] in this work. For the same molecule, the MIC [2] was 56.2 µM (≈ 63.9 µg/mL).
An MIC [4] of 40 µM (≈ 61.2 µg/mL), an MIC [2] of 20 µM (≈ 30.6 µg/mL) and an MIC [3] of at least 40 µM were found for `CC[C@H](C)[C@H](NC(=O)[C@H](CCCN=C(N)N)NC(=O)[C@H](CCC(N)=O)NC(=O)[C@@H](NC(=O)[C@@H](NC(=O)[C@H](CCCN=C(N)N)NC(=O)[C@@H](N)CCCCN)[C@@H](C)CC)C(C)C)C(=O)N[C@@H](CCCCN)C(=O)N[C@@H](CC(=O)O)C(=O)N[C@@H](Cc1ccccc1)C(=O)N[C@@H](C)C(=O)N[C@@H](CCCN=C(N)N)C(=O)O` [KRIVQRIKDFAR] in this work. For the same molecule, the MIC [6] was 40 µM (≈ 61.2 µg/mL).
An MIC (Pseudomonas aeruginosa) of 2.03 µM (≈ 4 µg/mL), an MIC [1] of 0.507 µM (≈ 1 µg/mL) and an MIC [4] of 0.507 µM (≈ 1 µg/mL) were found for `CC(C)C[C@H](NC(=O)[C@H](Cc1ccc(O)cc1)NC(=O)[C@H](CCCCN)NC(=O)[C@H](Cc1ccccc1)NC(=O)[C@H](CC(C)C)NC(=O)[C@H](CCCN=C(N)N)NC(=O)[C@H](CCCCN)NC(=O)[C@H](Cc1ccccc1)NC(=O)[C@H](CC(C)C)NC(=O)[C@H](CCCN=C(N)N)NC(=O)[C@@H](N)CCCCN)C(=O)N[C@@H](CCCN=C(N)N)C(=O)N[C@@H](CCCN=C(N)N)C(=O)N[C@@H](Cc1ccccc1)C(=O)O` [KRLFKRLFKYLRRF] in this work. It also gave an MIC [5] of 1.01 µM (≈ 2 µg/mL), an MIC [7] of 2.03 µM (≈ 4 µg/mL) and an MIC [2] of 1.01 µM (≈ 2 µg/mL). It also gave an MIC (Acinetobacter baumannii) of 1.01 µM (≈ 2 µg/mL).
An MIC [5] of over 64 µM, an MIC [8] of over 64 µM and an MIC [2] of over 64 µM were found for `CC[C@H](C)[C@H](NC(=O)[C@H](Cc1cnc[nH]1)NC(=O)[C@H](CCCN=C(N)N)NC(=O)[C@H](CC(C)C)NC(=O)[C@H](CC(N)=O)NC(=O)[C@@H](N)CC(N)=O)C(=O)N[C@H](C(=O)N[C@@H](C)C(=O)N[C@@H](Cc1c[nH]c2ccccc12)C(=O)N[C@H]1CSSC[C@@H](C(=O)N[C@@H](C)C(=O)N[C@@H](CCCN=C(N)N)C(=O)N[C@@H](Cc2ccccc2)C(=O)N[C@@H](CCCCN)C(=O)N2CCC[C@H]2C(=O)N[C@@H](CCC(N)=O)C(=O)O)NC(=O)[C@H](C(C)C)NC(=O)[C@H](C)NC(=O)[C@H](CC(C)C)NC(=O)[C@H](CO)NC(=O)[C@H](Cc2ccc(O)cc2)NC(=O)[C@H](CC(N)=O)NC(=O)[C@H](CCCN=C(N)N)NC(=O)[C@H](CC(N)=O)NC(=O)[C@H](CCCCN)NC1=O)C(C)C` [NNLRHIVAWCKNRNYSLAVCARFKPQ] in this work. The MIC [6] was over 64 µM.
An MIC (Escherichia coli) of over 122 µM and an MIC (Bacillus cereus) of at least 122 µM were found for `CC[C@H](C)[C@H](NC(=O)[C@H](CC(C)C)NC(=O)[C@H](CO)NC(=O)[C@@H]1CCCN1C(=O)[C@@H](NC(=O)[C@@H](NC(=O)[C@H](CCCCN)NC(=O)[C@H](CO)NC(=O)[C@H](C)NC(=O)[C@@H](NC(=O)[C@H](CO)NC(=O)[C@H](Cc1ccccc1)NC(=O)[C@@H](NC(=O)[C@@H](NC(=O)[C@@H]1CCCN1)C(C)C)C(C)C)C(C)C)C(C)C)C(C)C)C(=O)N[C@@H](CO)C(=O)N[C@@H](C)C(=O)N[C@@H](CC(C)C)C(=O)N[C@@H](CCCCN)C(=O)N[C@@H](CCCN=C(N)N)C(=O)O` [PVVFSVASKVVPSLISALKR] in this work.
An MIC [9] of at least 84.8 µM was found for `CC[C@H](C)[C@H](NC(=O)[C@@H](NC(=O)[C@@H](NC(=O)[C@@H]1CCCN1C(=O)[C@H](Cc1c[nH]c2ccccc12)NC(=O)[C@H](Cc1ccccc1)NC(=O)[C@H](CCCN=C(N)N)NC(=O)[C@H](CCCCN)NC(=O)[C@@H](NC(=O)[C@@H](N)CCCN=C(N)N)[C@@H](C)CC)C(C)C)C(C)C)C(=O)N[C@@H](CCCN=C(N)N)C(=O)N[C@H](C(=O)N[C@H](C(=O)N[C@H](C(=O)O)C(C)C)C(C)C)[C@@H](C)O` [RIKRFWPVVIRTVV] in this work.
An MIC [10] of at least 64 µM and an MIC [2] of 32 µM (≈ 71.9 µg/mL) were found for `CC[C@H](C)[C@H](NC(=O)[C@H](CCC(N)=O)NC(=O)[C@H](CCSC)NC(=O)[C@H](CCC(N)=O)NC(=O)[C@@H](NC(=O)[C@H](CCCCN)NC(=O)[C@H](Cc1ccccc1)NC(=O)[C@H](Cc1c[nH]c2ccccc12)NC(=O)[C@@H](N)CCCN=C(N)N)[C@@H](C)CC)C(=O)N[C@@H](CCCN=C(N)N)C(=O)N[C@@H](CCCN=C(N)N)C(=O)N[C@@H](Cc1c[nH]c2ccccc12)C(=O)N[C@@H](CCCCN)C(=O)N[C@@H](CC(N)=O)C(=O)N[C@@H](CCCCN)C(=O)N[C@@H](CCCCN)C(N)=O` [RWFKIQMQIRRWKNKK] in this work.
An MIC (Escherichia coli) of over 128 µM and an MIC (Bacillus cereus) of at least 128 µM were found for `CC[C@H](C)[C@H](NC(=O)[C@@H](NC(=O)[C@H](CO)NC(=O)[C@@H]1CCCN1C(=O)[C@@H](NC(=O)[C@@H](NC(=O)[C@H](CCCCN)NC(=O)[C@H](CO)NC(=O)[C@H](C)NC(=O)[C@@H](NC(=O)CNC(=O)[C@H](Cc1ccccc1)NC(=O)[C@@H](NC(=O)[C@@H](NC(=O)[C@@H](N)CO)C(C)C)C(C)C)C(C)C)C(C)C)C(C)C)C(C)C)C(=O)NCC(=O)N[C@@H](CCCCN)C(=O)N[C@H](C(=O)N[C@@H](CCCCN)C(=O)N[C@H](C(=O)O)[C@@H](C)O)C(C)C` [SVVFGVASKVVPSVIGKVKT] in this work.
An MIC (Escherichia coli) of over 124 µM and an MIC (Bacillus cereus) of at least 124 µM were found for `CC[C@H](C)[C@H](NC(=O)[C@H](CC(C)C)NC(=O)[C@H](CO)NC(=O)[C@@H]1CCCN1C(=O)[C@@H](NC(=O)[C@@H](NC(=O)[C@H](CCCCN)NC(=O)[C@H](CO)NC(=O)[C@H](C)NC(=O)[C@@H](NC(=O)[C@H](CCCN=C(N)N)NC(=O)CNC(=O)[C@@H](NC(=O)[C@@H](N)C(C)C)C(C)C)C(C)C)C(C)C)C(C)C)C(=O)NCC(=O)N[C@@H](CC(C)C)C(=O)N[C@@H](Cc1ccccc1)C(=O)N[C@H](C(=O)N[C@H](C(=O)N[C@@H](CCCCN)C(=O)O)[C@@H](C)O)[C@@H](C)O` [VVGRVASKVVPSLIGLFTTK] in this work.
